Here are results for 21 molecules from patent US12459922B2 (Gilead Sciences, Inc., priority 2022, dated 2025).

Structures are written as SMILES.

The target of one test is T1, PARP7 (Homo sapiens, UniProt Q7Z3E1).
T1 sequence (Q7Z3E1 1-657): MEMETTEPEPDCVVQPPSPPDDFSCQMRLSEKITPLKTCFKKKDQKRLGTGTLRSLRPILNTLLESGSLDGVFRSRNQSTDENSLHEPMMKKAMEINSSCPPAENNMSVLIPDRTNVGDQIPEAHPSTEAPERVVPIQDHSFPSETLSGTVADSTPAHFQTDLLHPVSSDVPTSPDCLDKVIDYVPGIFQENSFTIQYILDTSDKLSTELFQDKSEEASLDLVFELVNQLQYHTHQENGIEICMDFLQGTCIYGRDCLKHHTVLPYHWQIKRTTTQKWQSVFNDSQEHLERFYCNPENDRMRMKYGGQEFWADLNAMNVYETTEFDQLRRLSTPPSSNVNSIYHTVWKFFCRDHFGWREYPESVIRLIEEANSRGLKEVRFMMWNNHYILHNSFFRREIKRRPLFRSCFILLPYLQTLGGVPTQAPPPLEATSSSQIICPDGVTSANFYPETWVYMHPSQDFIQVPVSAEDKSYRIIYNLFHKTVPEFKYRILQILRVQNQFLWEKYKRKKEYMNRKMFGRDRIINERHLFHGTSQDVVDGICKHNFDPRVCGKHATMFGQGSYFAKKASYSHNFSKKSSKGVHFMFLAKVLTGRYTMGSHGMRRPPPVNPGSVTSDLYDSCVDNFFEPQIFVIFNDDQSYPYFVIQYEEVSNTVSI
In words: Probe Displacement Assay for PARP7 (MSD electrochemiluminescent, biotinylated probe RBNO11147). The conditions noted are these: displacement of biotinylated probe RBNO11147 from PARP7 NAD+-binding site; read-out: MSD ProbeDisp PARP7 IC50.

Test [1] concerns endogenous cellular STAT1 (phosphorylated at Tyr701) in NCI-H1373 cells. In words: Phospho-STAT1 (Tyr701) LANCE Ultra TR-FRET Detection Assay. It is filed as cell-based. The conditions noted are these: Homo sapiens, NCI-H1373, 48 h, phospho-STAT1 (Tyr701) induction, read-out: NH1373 pSTAT1 EC50.

By IC50 is commonly meant the concentration that inhibits the measured activity by half. Usually EC50 stands for the midpoint of the concentration-response curve.

Protocol for PARP7: Displacement of a biotinylated probe (RBNO11147; Wigle et al., Cell Chemical Biology, 2020, pp. 877-887) from the PARP7 NAD+-binding site was measured in vitro using a Mesoscale Discovery electrochemiluminescent assay. […] Next, 10 ml of 10 nM PARP7 protein incubated for 1 hour at room temperature with a dose response curve of each test compound in a Greiner LDV polypropylene plate (#781201) is added to the MSD plate containing the immobilized probe. The interaction is allowed to reach equilibrium for 1.5 hours, and then 10 ml of SULFO-TAG labeled anti-GST antibody (Cat #R32AA-1) is added to each well and allowed to incubate for an additional 1.5 hours at room temperature. Finally, 10 ml of MSD read buffer T (4×, Cat. #R92C-1) is added to each well using a Bravo liquid handler to prevent air bubbles in the wells, and the plates are subsequently read in an MSD instrument. Light intensity is then measured to quantify the amount of PARP7 bound to the immobilized probe on the plate.

With `C[C@@H](CCCn1ccc2cc(-c3cnc(C#N)cn3)c(F)cc2c1=O)Nc1cn[nH]c(=O)c1C(F)(F)F` [Example 23, (S)-5-(7-fluoro-1-oxo-2-(4-((6-oxo-5-(trifluoromethyl)-1,6-dihydropyridazin-4-yl)amino)pentyl)-1,2-dihydroisoquinolin-6-yl)pyrazine-2-carbonitrile], the IC50 on PARP7 turned out to be 0.4 nM. Also, the EC50 in test [1] was found to be 2300 nM.
For the molecule `C[C@@H](CCCn1ccc2cc(-c3ccc(CC(F)(F)F)cn3)cc(F)c2c1=O)Nc1cn[nH]c(=O)c1C(F)(F)F` [Example 41, 8-fluoro-2-[(4S)-4-[[6-oxo-5-(trifluoromethyl)-1H-pyridazin-4-yl]amino]pentyl]-6-[5-(2,2,2-trifluoroethyl)-2-pyridyl]isoquinolin-1-one], the IC50 at PARP7 is 3.7 nM. Moreover, in test [1], the EC50 is 144 nM.
On to `C[C@@H](CCCn1ccc2cc(-c3cccc4c3OCCO4)c(F)cc2c1=O)Nc1cn[nH]c(=O)c1C(F)(F)F` [Example 27, (S)-6-(2,3-dihydrobenzo[b][1,4]dioxin-5-yl)-7-fluoro-2-(4-((6-oxo-5-(trifluoromethyl)-1,6-dihydropyridazin-4-yl)amino)pentyl)isoquinolin-1(2H)-one], for which, at PARP7, the IC50 was found to be 25 nM. In test [1], the half-maximal effective concentration (EC50) worked out at 10000 nM.
Take `C[C@@H](CCCn1ccc2cc(-c3ncc(C(F)F)cn3)c(F)c(F)c2c1=O)Nc1cn[nH]c(=O)c1C(F)(F)F` [Example 53, (S)-6-(5-(difluoromethyl)pyrimidin-2-yl)-7,8-difluoro-2-(4-((6-oxo-5-(trifluoromethyl)-1,6-dihydropyridazin-4-yl)amino)pentyl)isoquinolin-1(2H)-one]: at PARP7, the IC50 turned out to be 0.496 nM. In addition, the EC50 in test [1] was determined as 17 nM.
Taken in the same sequence, the figures for `C[C@@H](CCCn1ccc2cc(-c3ccc(OC(F)(F)F)cn3)c(F)cc2c1=O)Nc1cn[nH]c(=O)c1C(F)(F)F` [Example 32, 7-fluoro-2-[(4S)-4-[[6-oxo-5-(trifluoromethyl)-1H-pyridazin-4-yl]amino]pentyl]-6-[5-(trifluoromethoxy)-2-pyridyl]isoquinolin-1-one] were 2.6 nM and 187 nM.
Consider `C[C@@H](CCCn1c(=O)[nH]c2cc(-c3ncc(C(F)(F)F)cn3)c(F)cc2c1=O)Nc1cn[nH]c(=O)c1C(F)(F)F` [Example 30, 6-fluoro-3-[(4S)-4-[[6-oxo-5-(trifluoromethyl)-1H-pyridazin-4-yl]amino]pentyl]-7-[5-(trifluoromethyl)pyrimidin-2-yl]-1H-quinazoline-2,4-dione], for which the IC50 at PARP7 is 0.3 nM. In addition, the EC50 in test [1] came out at 18.6 nM.
With `C[C@@H](CCCn1ccc2cc(-c3nc4ccccc4s3)c(F)cc2c1=O)Nc1cn[nH]c(=O)c1C(F)(F)F` [Example 308, (S)-6-(benzo[d]thiazol-2-yl)-7-fluoro-2-(4-((6-oxo-5-(trifluoromethyl)-1,6-dihydropyridazin-4-yl)amino)pentyl)isoquinolin-1(2H)-one], the IC50 at PARP7 amounted to 0.387 nM. The EC50 in test [1] came to 35.8 nM.
Consider `C[C@@H](CCCn1ccc2cc(-c3ccc(S(C)(=N)=O)cn3)cc(F)c2c1=O)Nc1cn[nH]c(=O)c1C(F)(F)F` (stereo partly drawn) [Example 40, 8-fluoro-6-[5-(methylsulfonimidoyl)-2-pyridyl]-2-[(4S)-4-[[6-oxo-5-(trifluoromethyl)-1H-pyridazin-4-yl]amino]pentyl]isoquinolin-1-one], for which the IC50 at PARP7 was 2.7 nM. Besides, the EC50 in test [1] amounted to 10000 nM.
Taken in the same sequence, the figures for `C[C@@H](CCCn1ncc2cc(-c3ncc(C(F)(F)F)cn3)ccc2c1=O)Nc1cn[nH]c(=O)c1C(F)(F)F` [Example 4, 2-[(4S)-4-[[6-oxo-5-(trifluoromethyl)-1H-pyridazin-4-yl]amino]pentyl]-6 [5-(trifluoromethyl)pyrimidin-2-yl]phthalazin-1-one] were 0.2 nM and 95.6 nM.
With `C[C@@H](CCCn1ccc2cc(-c3ncc(C(F)(F)F)cn3)cnc2c1=O)Nc1cn[nH]c(=O)c1C(F)(F)F` [Example 12, 7-[(4S)-4-[[6-oxo-5-(trifluoromethyl)-1H-pyridazin-4-yl]amino]pentyl]-3-[5-(trifluoromethyl)pyrimidin-2-yl]-1,7-naphthyridin-8-one], the IC50 at PARP7 came out at 23 nM. Besides, the EC50 in test [1] was found to be 10000 nM.
Regarding `C[C@@H](CCCn1ccc2cc(-c3ccc(C(N)C(F)(F)F)cn3)c(F)cc2c1=O)Nc1cn[nH]c(=O)c1C(F)(F)F` (stereo partly drawn) [Example 50, 6-[5-(1-amino-2,2,2-trifluoro-ethyl)-2-pyridyl]-7-fluoro-2-[(4S)-4-[[6-oxo-5-(trifluoromethyl)-1H-pyridazin-4-yl]amino]pentyl]isoquinolin-1-one], the IC50 on PARP7 came to 2.13 nM. Besides, the EC50 in test [1] was found to be 2760 nM.
As to `C[C@@H](CCCn1ccc2cc(-c3ncc(C#N)cn3)c(F)cc2c1=O)Nc1cn[nH]c(=O)c1C(F)(F)F` [Example 24, (S)-2-(7-fluoro-1-oxo-2-(4-((6-oxo-5-(trifluoromethyl)-1,6-dihydropyridazin-4-yl)amino)pentyl)-1,2-dihydroisoquinolin-6-yl)pyrimidine-5-carbonitrile], the IC50 at PARP7 was 0.9 nM. Further, the EC50 in test [1] amounted to 220 nM.
Regarding `O=c1[nH]ncc(N2C[C@H]3C[C@H]3[C@H]2CCCn2ccc3nc(-c4ccc(C(F)(F)F)cn4)ccc3c2=O)c1C(F)(F)F` [Example 47, 6-[3-[(1R,2R,5S)-3-[6-oxo-5-(trifluoromethyl)-1H-pyridazin-4-yl]-3-azabicyclo[3.1.0]hexan-2-yl]propyl]-2-[5-(trifluoromethyl)-2-pyridyl]-1,6-naphthyridin-5-one], the IC50 on PARP7 was 1.27 nM. The EC50 in test [1] was 10000 nM.
As for `C[C@@H](CCCn1ccc2cc(-c3cnc(C(F)(F)F)cn3)c(F)cc2c1=O)Nc1cn[nH]c(=O)c1C(F)(F)F` [Example 21, 7-fluoro-2-[(4S)-4-[[6-oxo-5-(trifluoromethyl)-1H-pyridazin-4-yl]amino]pentyl]-6-[5-(trifluoromethyl)pyrazin-2-yl]isoquinolin-1-one], the IC50 on PARP7 came to 0.3 nM. Also, in test [1], the EC50 is 136 nM.
For `CC[C@@H](CCCn1ccc2cc(-c3ncc(Cl)c(N)n3)c(F)cc2c1=O)Nc1cn[nH]c(=O)c1C(F)(F)F` [Example 303, (S)-6-(4-amino-5-chloropyrimidin-2-yl)-7-fluoro-2-(4-((6-oxo-5-(trifluoromethyl)-1,6-dihydropyridazin-4-yl)amino)hexyl)isoquinolin-1(2H)-one], the IC50 at PARP7 is 0.273 nM. Moreover, in test [1], the 50% effective concentration (EC50) amounted to 3.43 nM.
As for `Nc1nc(-c2cc3ccn(CCC[C@H](COC(F)F)Nc4cn[nH]c(=O)c4C(F)(F)F)c(=O)c3cc2F)ncc1Cl` [Example 378, (R)-6-(4-amino-5-chloropyrimidin-2-yl)-2-(5-(difluoromethoxy)-4-((6-oxo-5-(trifluoromethyl)-1,6-dihydropyridazin-4-yl)amino)pentyl)-7-fluoroisoquinolin-1(2H)-one], at PARP7, the IC50 worked out at 0.255 nM. Also, in test [1], the EC50 turned out to be 2.45 nM.
Taken in the same sequence, the figures for `C[C@@H](CCCn1ccc2cc(-c3ncc(C(F)(F)F)c(N4C[C@@H](O)[C@@H]4C)n3)c(F)cc2c1=O)Nc1cn[nH]c(=O)c1C(F)(F)F` [Example 311, 7-fluoro-6-(4-((2S,3R)-3-hydroxy-2-methylazetidin-1-yl)-5-(trifluoromethyl)pyrimidin-2-yl)-2-((S)-4-((6-oxo-5-(trifluoromethyl)-1,6-dihydropyridazin-4-yl)amino)pentyl)isoquinolin-1(2H)-one] were 0.258 nM and 14 nM.
On to `C[C@@H](CCCn1ccc2cc(-c3ccc(F)cn3)c(F)c(F)c2c1=O)Nc1cn[nH]c(=O)c1C(F)(F)F` [Example 52, (S)-7,8-difluoro-6-(5-fluoropyridin-2-yl)-2-(4-((6-oxo-5-(trifluoromethyl)-1,6-dihydropyridazin-4-yl)amino)pentyl)isoquinolin-1(2H)-one], for which the half-inhibitory concentration (IC50) at PARP7 worked out at 0.763 nM. Also, the EC50 in test [1] came out at 164 nM.
Consider `C[C@@H](CCCn1ccc2cc(-c3ncc(C(F)(F)F)cn3)c(F)cc2c1=O)Nc1cn[nH]c(=O)c1C(F)(F)F` [Example 8, 7-fluoro-2-[(4S)-4-[[6-oxo-5-(trifluoromethyl)-1H-pyridazin-4-yl]amino]pentyl]-6-[5-(trifluoromethyl)pyrimidin-2-yl]isoquinolin-1-one], for which the IC50 at PARP7 was found to be 0.2 nM. Besides, the concentration for a half-maximal effect (EC50) in test [1] was 19.2 nM.
Turning to `C[C@@H](CCCn1ccc2cc(-c3ccc(C#N)cn3)c(F)cc2c1=O)Nc1cn[nH]c(=O)c1C(F)(F)F` [Example 25, (S)-6-(7-fluoro-1-oxo-2-(4-((6-oxo-5-(trifluoromethyl)-1,6-dihydropyridazin-4-yl)amino)pentyl)-1,2-dihydroisoquinolin-6-yl)nicotinonitrile], the IC50 at PARP7 was found to be 0.6 nM. Also, the EC50 in test [1] was 136 nM.
Consider `C[C@@H](CCCn1ccc2cc(-c3ncc(C(F)F)cn3)c(F)cc2c1=O)Nc1cn[nH]c(=O)c1C(F)(F)F` [Example 76, 6-[5-(difluoromethyl)pyrimidin-2-yl]-7-fluoro-2-[(4S)-4-[[6-oxo-5-(trifluoromethyl)-1H-pyridazin-4-yl]amino]pentyl]isoquinolin-1-one], for which, at PARP7, the concentration for half-maximal inhibition (IC50) stood at 0.41 nM. Besides, the EC50 in test [1] is 21.3 nM.
